Measured values reported in the CheMixHub viscosity set.

Experiment: xn = mol fraction of the nth substance listed

CCOC(=O)C(=O)OCC + Cc1ccccc1
viscosity [mPa·s], 101 kPa
Settings | 303.15 K | 313.15 K | 323.15 K
x1 = 0.0804 | 0.5603 | – | –
x1 = 0.1006 | 0.581 | 0.516 | 0.465
x1 = 0.1644 | 0.5912 | – | –
x1 = 0.2019 | 0.651 | 0.578 | 0.514
x1 = 0.2523 | 0.6413 | – | –
x1 = 0.3013 | 0.725 | 0.646 | 0.571
x1 = 0.3443 | 0.7072 | – | –
x1 = 0.4005 | 0.811 | 0.712 | 0.628
x1 = 0.4403 | 0.7809 | – | –
x1 = 0.502 | 0.907 | 0.788 | 0.691
x1 = 0.5414 | 0.8798 | – | –
x1 = 0.6024 | 1.028 | 0.887 | 0.77
x1 = 0.6481 | 1.007 | – | –
x1 = 0.6988 | 1.151 | 0.988 | 0.855
x1 = 0.7597 | 1.167 | – | –
x1 = 0.7971 | 1.289 | 1.095 | 0.943
x1 = 0.8762 | 1.38 | – | –
x1 = 0.8936 | 1.442 | 1.222 | 1.044

COCCO + Cc1ccccc1
viscosity [mPa·s]
Settings | 298.15 K | 303.15 K | 308.15 K
101 kPa, x1 = 0.0586 | 0.571 | – | 0.512
101 kPa, x1 = 0.1696 | 0.617 | – | 0.545
101 kPa, x1 = 0.2421 | 0.654 | – | 0.571
101 kPa, x1 = 0.3513 | 0.719 | – | 0.618
101 kPa, x1 = 0.4555 | 0.796 | – | 0.674
101 kPa, x1 = 0.4987 | 0.833 | – | 0.7
101 kPa, x1 = 0.5515 | 0.882 | – | 0.736
101 kPa, x1 = 0.6515 | 0.99 | – | 0.814
101 kPa, x1 = 0.7487 | 1.118 | – | 0.905
101 kPa, x1 = 0.8495 | 1.279 | – | 1.021
101 kPa, x1 = 0.9558 | 1.49 | – | 1.17
101.33 kPa, x1 = 0.1311 | – | 0.566 | –
101.33 kPa, x1 = 0.2283 | – | 0.608 | –
101.33 kPa, x1 = 0.3137 | – | 0.645 | –
101.33 kPa, x1 = 0.4277 | – | 0.716 | –
101.33 kPa, x1 = 0.5253 | – | 0.784 | –
101.33 kPa, x1 = 0.6244 | – | 0.87 | –
101.33 kPa, x1 = 0.7116 | – | 0.954 | –
101.33 kPa, x1 = 0.8018 | – | 1.057 | –
101.33 kPa, x1 = 0.9149 | – | 1.219 | –

CC(=O)OC(C)C + Cc1ccccc1C
viscosity [mPa·s], 101 kPa
Settings | x1 = 0.1037 | x1 = 0.2009 | x1 = 0.3016 | x1 = 0.4027 | x1 = 0.5048 | x1 = 0.6019 | x1 = 0.7013 | x1 = 0.8041 | x1 = 0.9437
303.15 K | 0.669 | 0.645 | 0.62 | 0.595 | 0.571 | 0.55 | 0.527 | 0.504 | 0.472
313.15 K | 0.596 | 0.573 | 0.552 | 0.53 | 0.509 | 0.489 | 0.47 | 0.45 | 0.424

CC(=O)OCC(C)C + Cc1ccccc1C
viscosity [mPa·s], 101 kPa
Settings | x1 = 0.0918 | x1 = 0.1798 | x1 = 0.2716 | x1 = 0.3504 | x1 = 0.4528 | x1 = 0.5735 | x1 = 0.6718 | x1 = 0.7786 | x1 = 0.8691 | x1 = 0.9514
303.15 K | 0.694 | 0.688 | 0.681 | 0.675 | 0.667 | 0.659 | 0.653 | 0.648 | 0.644 | 0.641
313.15 K | 0.613 | 0.606 | 0.6 | 0.595 | 0.59 | 0.585 | 0.582 | 0.58 | 0.578 | 0.58

CCCC(=O)O + Cc1ccccc1N
viscosity [mPa·s], 100 kPa
Settings | x2 = 0.0971 | x2 = 0.1896 | x2 = 0.2605 | x2 = 0.3617 | x2 = 0.4825 | x2 = 0.5911 | x2 = 0.6776 | x2 = 0.7516 | x2 = 0.8641
303.15 K | 1.59 | 1.78 | 1.92 | 2.12 | 2.35 | 2.55 | 2.71 | 2.84 | 3.03
308.15 K | 1.42 | 1.58 | 1.7 | 1.87 | 2.07 | 2.24 | 2.37 | 2.48 | 2.64
313.15 K | 1.26 | 1.4 | 1.51 | 1.66 | 1.83 | 1.98 | 2.1 | 2.19 | 2.33
318.15 K | 1.1 | 1.23 | 1.32 | 1.45 | 1.6 | 1.73 | 1.83 | 1.91 | 2.02

CCCC(=O)O + ClC(Cl)(Cl)Cl
298.15 K, 101 kPa
Settings | viscosity [mPa·s]
x1 = 0.08 | 0.911
x1 = 0.16 | 0.925
x1 = 0.24 | 0.945
x1 = 0.3 | 0.966
x1 = 0.54 | 1.079
x1 = 0.64 | 1.142
x1 = 0.72 | 1.201
x1 = 0.87 | 1.331

CCCCBr + ClC(Cl)(Cl)Cl
101 kPa
Settings | viscosity [mPa·s]
295.95 K, x1 = 0.0935 | 0.874
295.95 K, x1 = 0.1213 | 0.8589
295.95 K, x1 = 0.171 | 0.8365
295.95 K, x1 = 0.2166 | 0.8163
295.95 K, x1 = 0.3376 | 0.7686
295.95 K, x1 = 0.5094 | 0.7155
295.95 K, x1 = 0.6766 | 0.6738
303.45 K, x1 = 0.0948 | 0.7853
303.45 K, x1 = 0.1316 | 0.7681
303.45 K, x1 = 0.1914 | 0.7427
303.45 K, x1 = 0.3229 | 0.698
303.45 K, x1 = 0.4875 | 0.6544
303.45 K, x1 = 0.7961 | 0.5884
313.25 K, x1 = 0.127 | 0.6844
313.25 K, x1 = 0.2061 | 0.6557
313.25 K, x1 = 0.2967 | 0.6297
313.25 K, x1 = 0.4576 | 0.5922
313.25 K, x1 = 0.6279 | 0.5598
313.25 K, x1 = 0.761 | 0.5382
313.25 K, x1 = 0.7961 | 0.5329

CCCCCCCBr + ClC(Cl)(Cl)Cl
viscosity [mPa·s], 101 kPa
Settings | 293.15 K | 303.15 K | 313.15 K | 323.15 K
x1 = 0.123 | 1.015 | 0.878 | 0.769 | 0.677
x1 = 0.259 | 1.045 | 0.905 | 0.797 | 0.705
x1 = 0.412 | 1.09 | 0.945 | 0.832 | 0.738
x1 = 0.584 | 1.13 | 0.982 | 0.865 | 0.767

CCCCNCCCC + ClC(Cl)(Cl)Cl
298.15 K, 101.3 kPa
Settings | viscosity [mPa·s]
x1 = 0.0922 | 0.898
x1 = 0.173 | 0.894
x1 = 0.3108 | 0.887
x1 = 0.4089 | 0.881
x1 = 0.5011 | 0.877
x1 = 0.5964 | 0.872
x1 = 0.7077 | 0.864
x1 = 0.7916 | 0.848
x1 = 0.9034 | 0.823

CCOC(=O)C(=O)OCC + ClC(Cl)(Cl)Cl
303.15 K, 101 kPa
Settings | viscosity [mPa·s]
x1 = 0.0736 | 0.915
x1 = 0.1516 | 0.997
x1 = 0.2345 | 1.074
x1 = 0.3227 | 1.155
x1 = 0.4171 | 1.24
x1 = 0.5177 | 1.323
x1 = 0.6259 | 1.402
x1 = 0.7414 | 1.482
x1 = 0.8658 | 1.574

CCCCNCCCC + ClC(Cl)Cl
298.15 K, 101.3 kPa
Settings | viscosity [mPa·s]
x1 = 0.102 | 0.639
x1 = 0.199 | 0.717
x1 = 0.3088 | 0.803
x1 = 0.3714 | 0.845
x1 = 0.4997 | 0.904
x1 = 0.6082 | 0.925
x1 = 0.698 | 0.907
x1 = 0.7719 | 0.89
x1 = 0.9007 | 0.852

CCOC(=O)C(=O)OCC + ClC(Cl)Cl
303.15 K, 101 kPa
Settings | viscosity [mPa·s]
x1 = 0.0624 | 0.606
x1 = 0.1302 | 0.712
x1 = 0.2043 | 0.825
x1 = 0.2854 | 0.942
x1 = 0.3747 | 1.051
x1 = 0.473 | 1.157
x1 = 0.5831 | 1.28
x1 = 0.7057 | 1.399
x1 = 0.8436 | 1.539

CCCCNCCCC + ClCCl
298.15 K, 101.3 kPa
Settings | viscosity [mPa·s]
x1 = 0.0995 | 0.494
x1 = 0.2125 | 0.55
x1 = 0.299 | 0.59
x1 = 0.3913 | 0.633
x1 = 0.4338 | 0.655
x1 = 0.6097 | 0.719
x1 = 0.6782 | 0.74
x1 = 0.807 | 0.768
x1 = 0.8865 | 0.787

C[N+](C)(C)C[C@H](O)CC(=O)[O-] + NC(N)=O
Settings | viscosity [mPa·s]
298.15 K, 101.33 kPa, x2 = 0.7 | 553
